What all share (assay type): cell-based
The target of experiment [1] is hGLP-1R (Homo sapiens, UniProt P43220). The experiment in a line: Functional cAMP formation (HTRF) in HEK-293 clonal cells expressing hGLP-1R, 0.1% bovine casein, without or with 1.0% human serum albumin. Also noted: expressed in transfected cells. The following applies: for Emax: percent of maximal response to GLP-1(7-36)NH2; for EC50: geometric mean. An outline of the steps:
(§1)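 Cells were stimulated with peptide for 30 min at 37° C, then intracellular cAMP was measured by competitive HTRF (665/620 nm ratio) and converted to nM using a cAMP standard curve. Relative EC50 and Emax came from four-parameter logistic fits of percent maximal response against peptide concentration.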
Background: cAMP levels reflect the balance of adenylyl cyclase and phosphodiesterase activity.

In experiment [2] the target is T1, hGIPR (Homo sapiens, UniProt P48546).
T1 construct: expressed in transfected cells
T1 sequence (P48546 22-466): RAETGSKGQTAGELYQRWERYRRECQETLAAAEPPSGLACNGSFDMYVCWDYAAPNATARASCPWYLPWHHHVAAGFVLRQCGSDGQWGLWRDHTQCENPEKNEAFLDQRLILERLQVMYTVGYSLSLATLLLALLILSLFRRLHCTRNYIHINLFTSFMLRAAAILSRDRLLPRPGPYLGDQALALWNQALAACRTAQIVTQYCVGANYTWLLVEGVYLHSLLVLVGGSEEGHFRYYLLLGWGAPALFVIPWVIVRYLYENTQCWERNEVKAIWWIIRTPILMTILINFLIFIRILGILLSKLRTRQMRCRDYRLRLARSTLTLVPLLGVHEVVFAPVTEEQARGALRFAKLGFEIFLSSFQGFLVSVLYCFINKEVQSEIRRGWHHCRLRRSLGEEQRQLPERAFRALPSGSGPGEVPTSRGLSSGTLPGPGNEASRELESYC
The experiment in a line: Functional cAMP formation (HTRF) in HEK-293 clonal cells expressing hGIPR, 0.1% bovine casein, without or with 1.0% human serum albumin. The following applies: for Emax: percent of maximal response to GIP(1-42)NH2; for EC50: geometric mean. In a few lines: as §1

Experiment [3] deals with T2, hGCGR (Homo sapiens, UniProt P47871).
T2 construct: expressed in transfected cells
The experiment can be described thus: Functional cAMP formation (HTRF) in HEK-293 clonal cells expressing hGCGR, 0.1% bovine casein, without or with 1.0% human serum albumin. Conditions: 37° C. In a few lines:
as §1

[4] abbreviates: hGLP-1R EC50, nM (SEM, n), cAMP, 37° C., 0.1% bovine casein (no human serum albumin).
Where [5] appears, read: HEK293, read-out: hGIPR Emax, % ± SEM, cAMP, 37° C., 0.1% bovine casein, arithmetic mean.
[6] abbreviates: hGCGR EC50, nM (SEM, n), cAMP, 0.1% bovine casein (no human serum albumin), geometric mean.
Where [7] appears, read: HEK293, cAMP, 37° C., 0.1% bovine casein, arithmetic mean, read-out: hGLP-1R Emax, % ± SEM.
Setting [8] is: cAMP, 37° C., 0.1% bovine casein (no human serum albumin), read-out: hGLP-1R EC50, nM (SEM, n).
[9] abbreviates: cAMP, 37° C., 0.1% bovine casein (no human serum albumin), read-out: hGIPR EC50, nM (SEM, n).
Setting [10] is: cAMP, 0.1% bovine casein (no human serum albumin), geometric mean, read-out: hGCGR EC50, nM (SEM, n).

Read-outs that look alike come from different tables or passages of the source. *1 amine or outer side, *2 acyl side, *3 side chain or, on linkers, in order; H or OH if unused. Where a SMILES comes first, the peptide text is derived from it. Side-chain parts run from the residue outwards. [ ]: non-standard residue; d: D form. The star is where a group is joined. Decanoyl(10-(4-HOOC-PhO)) = O=C(O)c1ccc(OCCCCCCCCCC(=O)*)cc1; αMePhe(2-F) = C[C@](N)(Cc1ccccc1F)C(=O)O; γGlu = O=C(O)[C@H](CCC(=O)[*:2])N[*:1]; αMeY = C[C@](N)(Cc1ccc(O)cc1)C(=O)O; 4Pal = N[C@@H](Cc1ccncc1)C(=O)O; αMeL = CC(C)C[C@](C)(N)C(=O)O; Lauroyl = CCCCCCCCCCCC(=O)*; Orn = NCCC[C@H](N)C(=O)O; AEEA = NCCOCCOCC(=O)O; Aib = CC(C)(N)C(=O)O

T2 sequence (P47871 26-477): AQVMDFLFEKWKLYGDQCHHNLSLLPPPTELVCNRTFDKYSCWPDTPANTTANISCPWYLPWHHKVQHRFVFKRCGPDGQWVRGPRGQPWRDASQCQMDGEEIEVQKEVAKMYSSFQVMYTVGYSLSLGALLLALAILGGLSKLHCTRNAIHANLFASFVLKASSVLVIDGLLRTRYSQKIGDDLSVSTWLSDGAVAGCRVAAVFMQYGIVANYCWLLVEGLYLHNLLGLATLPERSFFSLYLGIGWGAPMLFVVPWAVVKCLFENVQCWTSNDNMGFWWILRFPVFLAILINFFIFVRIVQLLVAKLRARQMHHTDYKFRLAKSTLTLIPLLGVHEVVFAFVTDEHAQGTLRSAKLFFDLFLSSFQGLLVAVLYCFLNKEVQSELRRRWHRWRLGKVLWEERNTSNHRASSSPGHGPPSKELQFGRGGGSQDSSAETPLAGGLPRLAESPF
Chain of hGLP-1R (P43220 24-463): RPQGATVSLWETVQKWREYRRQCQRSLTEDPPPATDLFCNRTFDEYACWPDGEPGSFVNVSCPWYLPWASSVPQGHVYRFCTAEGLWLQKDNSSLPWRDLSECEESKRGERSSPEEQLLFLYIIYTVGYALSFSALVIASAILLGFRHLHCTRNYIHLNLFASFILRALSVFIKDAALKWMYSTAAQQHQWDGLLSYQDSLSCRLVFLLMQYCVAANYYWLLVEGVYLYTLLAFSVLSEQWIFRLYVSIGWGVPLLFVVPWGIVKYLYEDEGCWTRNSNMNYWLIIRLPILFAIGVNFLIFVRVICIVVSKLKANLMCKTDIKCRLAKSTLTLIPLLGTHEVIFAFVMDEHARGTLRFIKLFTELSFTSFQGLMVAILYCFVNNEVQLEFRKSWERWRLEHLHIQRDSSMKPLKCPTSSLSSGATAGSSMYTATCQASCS

Broadly, the Emax is the size of the effect at its maximum, as opposed to the concentration needed. As a reminder, the EC50 is the concentration giving half of the maximal effect. As for `CC[C@H](C)[C@H](NC(=O)[C@H](CCCN)NC(=O)[C@H](CC(=O)O)NC(=O)[C@H](CC(C)C)NC(=O)[C@](C)(CC(C)C)NC(=O)[C@@H](NC(=O)C(C)(C)NC(=O)[C@@H](NC(=O)[C@H](CC(=O)O)NC(=O)[C@H](CO)NC(=O)[C@@H](NC(=O)[C@](C)(Cc1ccccc1F)NC(=O)[C@@H](NC(=O)CNC(=O)[C@H](CCC(=O)O)NC(=O)C(C)(C)NC(=O)[C@@H](N)Cc1ccc(O)cc1)[C@@H](C)O)[C@@H](C)O)C(C)C)[C@@H](C)CC)C(=O)N[C@@H](C)C(=O)N[C@@H](CCC(N)=O)C(=O)NC(C)(C)C(=O)N[C@@H](CCCCNC(=O)COCCOCCNC(=O)COCCOCCNC(=O)CC[C@H](NC(=O)CCCCCCCCCOc1ccc(C(=O)O)cc1)C(=O)O)C(=O)N[C@@H](Cc1ccccc1)C(=O)N[C@H](C(=O)N[C@H](CCC(=O)O)C(=O)N[C@@](C)(Cc1ccc(O)cc1)C(=O)N[C@@H](CC(C)C)C(=O)N[C@H](C(=O)N[C@@H](CCC(=O)O)C(=O)NCC(=O)NCC(=O)N1CCC[C@H]1C(=O)N[C@@H](CO)C(=O)N[C@@H](CO)C(=O)NCC(=O)N[C@@H](C)C(=O)N1CCC[C@H]1C(=O)N1CCC[C@H]1C(=O)N1CCC[C@H]1C(=O)N[C@@H](CO)C(=O)N[C@@H](CCCCNC(=O)COCCOCCNC(=O)COCCOCCNC(=O)CC[C@H](NC(=O)CCCCCCCCCOc1ccc(C(=O)O)cc1)C(=O)O)C(N)=O)[C@@H](C)CC)[C@@H](C)CC` [Example 383] (H-Y[Aib]EGT[αMePhe(2-F)]TSDV[Aib]I[αMeL]LD[Orn]IAQ[Aib]K([AEEA-AEEA-γGlu-Decanoyl(10-(4-HOOC-PhO))])FI[dE][αMeY]LIEGGPSSGAPPPSK([AEEA-AEEA-γGlu-Decanoyl(10-(4-HOOC-PhO))])-NH2), the Emax in experiment [1] (HEK293, read-out: hGLP-1R Emax, % ± SEM, cAMP, 37° C., 0.1% bovine casein, arithmetic mean) amounted to 105%; in experiment [2] (HEK293, read-out: hGIPR Emax, % ± SEM, cAMP, 37° C., 0.1% bovine casein and 1.0% human serum albumin), 82.8%; in experiment [2] (setting [5]), 100%. Besides, the EC50 in experiment [1] (setting [4]) is 0.306 nM; in experiment [2] (hGIPR EC50, nM (SEM, n), cAMP, 37° C., 0.1% bovine casein (no human serum albumin)) it was 0.0147 nM; in experiment [3] (setting [6]) it was over 9950 nM; in experiment [3] (hGCGR EC50, nM (SEM, n), cAMP, 0.1% bovine casein and 1.0% human serum albumin, geometric mean (SEM, n)), over 9950 nM.
In the case of `CC[C@H](C)[C@H](NC(=O)[C@H](CC(C)C)NC(=O)[C@](C)(Cc1ccc(O)cc1)NC(=O)[C@@H](CCC(=O)O)NC(=O)[C@@H](NC(=O)[C@H](Cc1ccccc1)NC(=O)[C@H](CCCCNC(=O)COCCOCCNC(=O)COCCOCCNC(=O)CC[C@H](NC(=O)CCCCCCCCCOc1ccc(C(=O)O)cc1)C(=O)O)NC(=O)C(C)(C)NC(=O)[C@H](CCC(N)=O)NC(=O)[C@H](C)NC(=O)[C@H](CCCCNC(=O)COCCOCCNC(=O)COCCOCCNC(=O)CC[C@H](NC(=O)CCCCCCCCCOc1ccc(C(=O)O)cc1)C(=O)O)NC(=O)[C@H](CCCN)NC(=O)[C@H](CC(=O)O)NC(=O)[C@H](CC(C)C)NC(=O)[C@](C)(CC(C)C)NC(=O)[C@@H](NC(=O)[C@H](CO)NC(=O)[C@H](CCc1ccc(O)cc1)NC(=O)[C@H](CC(=O)O)NC(=O)[C@H](CO)NC(=O)[C@@H](NC(=O)[C@](C)(Cc1ccccc1F)NC(=O)[C@@H](NC(=O)CNC(=O)[C@H](CCC(=O)O)NC(=O)C(C)(C)NC(=O)[C@@H](N)Cc1ccc(O)cc1)[C@@H](C)O)[C@@H](C)O)[C@@H](C)CC)[C@@H](C)CC)C(=O)N[C@@H](CCC(=O)O)C(=O)NCC(=O)NCC(=O)N1CCC[C@H]1C(=O)N[C@@H](CO)C(=O)N[C@@H](CO)C(=O)NCC(=O)N[C@@H](C)C(=O)N1CCC[C@H]1C(=O)N1CCC[C@H]1C(=O)N1CCC[C@H]1C(=O)N[C@@H](CO)C(N)=O` [Example 320], the EC50 is 0.246 nM in experiment [1] (setting [4]); over 9950 nM in experiment [3] (hGCGR EC50, nM (SEM, n), 0.1% bovine casein and 1.0% human serum albumin, geometric mean); over 9950 nM in experiment [3] (setting [6]). Besides, the maximal effect (Emax) in experiment [2] (HEK293, read-out: hGIPR Emax, % ± SEM, 0.1% bovine casein and 1.0% human serum albumin, 37° C.) turned out to be 84.1%; in experiment [2] (setting [5]), 94.2%.
Take `CC[C@H](C)[C@H](NC(=O)[C@H](CCCN)NC(=O)[C@H](CC(=O)O)NC(=O)[C@H](CC(C)C)NC(=O)[C@](C)(CC(C)C)NC(=O)[C@@H](NC(=O)C(C)(C)NC(=O)[C@H](Cc1ccncc1)NC(=O)[C@H](CC(=O)O)NC(=O)[C@H](CO)NC(=O)[C@@H](NC(=O)[C@](C)(Cc1ccccc1F)NC(=O)[C@@H](NC(=O)CNC(=O)[C@H](CCC(=O)O)NC(=O)C(C)(C)NC(=O)[C@@H](N)Cc1ccc(O)cc1)[C@@H](C)O)[C@@H](C)O)[C@@H](C)CC)C(=O)N[C@@H](C)C(=O)N[C@@H](CCC(N)=O)C(=O)NC(C)(C)C(=O)N[C@@H](CCCCNC(=O)COCCOCCNC(=O)CC[C@H](NC(=O)CCCCCCCCCCCCC(=O)O)C(=O)O)C(=O)N[C@@H](Cc1ccccc1)C(=O)N[C@H](C(=O)N[C@H](CCC(=O)O)C(=O)N[C@@](C)(Cc1ccc(O)cc1)C(=O)N[C@@H](CC(C)C)C(=O)N[C@H](C(=O)N[C@@H](CCCCNC(=O)COCCOCCNC(=O)CC[C@H](NC(=O)CCCCCCCCCCCCC(=O)O)C(=O)O)C(=O)NCC(=O)NCC(=O)N1CCC[C@H]1C(=O)N[C@@H](CO)C(=O)N[C@@H](CO)C(=O)NCC(=O)N[C@@H](C)C(=O)N1CCC[C@H]1C(=O)N1CCC[C@H]1C(=O)N1CCC[C@H]1C(=O)N[C@@H](CO)C(N)=O)[C@@H](C)CC)[C@@H](C)CC` [Example 340]: the maximal response (Emax) came to 112% in experiment [1] (HEK293, cAMP, 37° C., 0.1% bovine casein and 1.0% human serum albumin, read-out: hGLP-1R Emax, % ± SEM); 105% in experiment [1] (setting [7]); 87.9% in experiment [2] (HEK293, cAMP, 37° C., 0.1% bovine casein and 1.0% human serum albumin, read-out: hGIPR Emax, % ± SEM); 95.2% in experiment [2] (HEK293, cAMP, 37° C., 0.1% bovine casein, arithmetic mean, read-out: hGIPR Emax, % ± SEM). Further, the EC50 in experiment [1] (setting [8]) is 0.409 nM; in experiment [2] (setting [9]), 0.0206 nM; in experiment [3] (setting [10]), over 9950 nM; in experiment [3] (cAMP, 0.1% bovine casein and 1.0% human serum albumin, geometric mean (SEM, n), read-out: hGCGR EC50, nM (SEM, n)), over 9950 nM.
`CCCCCCCCCCCC(=O)N[C@@H](CCC(=O)NCCOCCOCC(=O)NCCOCCOCC(=O)NCCCC[C@H](NC(=O)[C@H](CCCN)NC(=O)[C@H](CC(=O)O)NC(=O)[C@H](CC(C)C)NC(=O)[C@](C)(CC(C)C)NC(=O)[C@@H](NC(=O)[C@H](CO)NC(=O)[C@H](Cc1ccncc1)NC(=O)[C@H](CC(=O)O)NC(=O)[C@H](CO)NC(=O)[C@@H](NC(=O)[C@](C)(Cc1ccccc1F)NC(=O)[C@@H](NC(=O)CNC(=O)[C@H](CCC(=O)O)NC(=O)C(C)(C)NC(=O)[C@@H](N)Cc1ccc(O)cc1)[C@@H](C)O)[C@@H](C)O)[C@@H](C)CC)C(=O)N[C@@H](C)C(=O)N[C@@H](CCC(N)=O)C(=O)NC(C)(C)C(=O)N[C@@H](CCCCNC(=O)COCCOCCNC(=O)COCCOCCNC(=O)CC[C@H](NC(=O)CCCCCCCCCCC)C(=O)O)C(=O)N[C@@H](Cc1ccccc1)C(=O)N[C@H](C(=O)N[C@H](CCC(=O)O)C(=O)N[C@@](C)(Cc1ccc(O)cc1)C(=O)N[C@@H](CC(C)C)C(=O)N[C@H](C(=O)N[C@@H](CCC(=O)O)C(=O)NCC(=O)NCC(N)=O)[C@@H](C)CC)[C@@H](C)CC)C(=O)O` [Example 295] (H-Y[Aib]EGT[αMePhe(2-F)]TSD[4Pal]SI[αMeL]LD[Orn]K([AEEA-AEEA-γGlu-Lauroyl])AQ[Aib]K([AEEA-AEEA-γGlu-Lauroyl])FI[dE][αMeY]LIEGG-NH2; N-terminus assumed): the 50% effective concentration (EC50) was 10.4 nM in experiment [1] (0.1% bovine casein and 1.0% human serum albumin, 37° C., read-out: hGLP-1R EC50, nM (SEM, n)); 0.167 nM in experiment [1] (setting [8]); 1.09 nM in experiment [2] (0.1% bovine casein and 1.0% human serum albumin, 37° C., read-out: hGIPR EC50, nM (SEM, n)); 0.0141 nM in experiment [2] (setting [9]); over 9950 nM in experiment [3] (0.1% bovine casein and 1.0% human serum albumin, geometric mean, read-out: hGCGR EC50, nM (SEM, n)); over 9950 nM in experiment [3] (setting [10]). In experiment [1] (setting [7]), the Emax is 109%.

These data come from patent publication US20230265151A1, “GIP/GLP1 CO-AGONIST COMPOUNDS” (priority 2020, published 2023).
